Data as given in DBAASP.
≈ marks a conversion by molar mass, not a printed value.

Columns and labels:
Test in all cases: ≥ marks a high value that may be exact or a test limit, other limits are often not marked, values filed in µg/mL are converted to µM
[1] = test system: Aspergillus parasiticus KCTC 6598
[2] = test system: Staphylococcus aureus ATCC 25923
[3] = test system: Escherichia coli ATCC 25922
[4] = test system: Aspergillus flavus KCTC 6905
[5] = test system: Staphylococcus epidermidis ATCC 12228
[6] = test system: Salmonella typhimurium KCTC 1926
[7] = test system: Listeria monocytogenes KCTC 3710
[8] = test system: Candida albicans KCTC 7270
[9] = test system: Pseudomonas aeruginosa ATCC 15692
[10] = test system: Aspergillus awamori KCTC 6915
[11] = test system: Bacillus subtilis KCTC 1998
[12] = test system: Trichosporon beigelii KCTC 7707
[13] = test system: Aspergillus fumigatus KCTC 6145
[14] = test system: Proteus vulgaris KCTC 2433
Pediococcus acidilactici = test system: Pediococcus acidilactici
Micrococcus luteus = test system: Micrococcus luteus
Fusarium culmorum = test system: Fusarium culmorum
Bacillus megaterium = test system: Bacillus megaterium
Trichoderma viride = test system: Trichoderma viride
Aerococcus viridans = test system: Aerococcus viridans
Neurospora crassa = test system: Neurospora crassa
Ascochyta pisi = test system: Ascochyta pisi
Alternaria brassicicola = test system: Alternaria brassicicola
Botrytis cinerea = test system: Botrytis cinerea
Fusarium haematococcum = test system: Fusarium haematococcum
[15] = test system: Escherichia coli CIP 76.24
[16] = test system: Staphylococcus aureus CIP 53.156
Staphylococcus aureus 31 = test system: Staphylococcus aureus 31
[17] = test system: Staphylococcus aureus ATCC 6538
[18] = test system: Pseudomonas aeruginosa ATCC 19660
[19] = test system: Pseudomonas aeruginosa 6294
[20] = test system: Pseudomonas aeruginosa 6206
[21] = test system: Pseudomonas aeruginosa 37
Staphylococcus aureus 38 = test system: Staphylococcus aureus 38
Bacillus subtilis = test system: Bacillus subtilis
[22] = test system: Escherichia coli DH5alpha
Candida albicans SC5314 = test system: Candida albicans SC5314
[23] = test system: Pseudomonas aeruginosa ATCC 27853
[24] = test system: Xanthomonas campestris pv. campestris
[25] = test system: Xanthomonas oryzae pv. oryzae
[26] = test system: Cryptococcus neoformans var. grubii H99
[27] = test system: Staphylococcus aureus ATCC 2592
[28] = test system: Candida albicans 08022710
[29] = test system: Candida albicans 08030809
[30] = test system: Candida albicans 08022821
[31] = test system: Candida albicans 08032815
[32] = test system: Candida albicans ATCC 2002

Structure (SMILES): CC[C@H](C)[C@H](NC(=O)[C@H](CCCCN)NC(=O)[C@H](CCCCN)NC(=O)[C@H](C)NC(=O)[C@H](CC(C)C)NC(=O)[C@H](CCCCN)NC(=O)[C@H](CCCCN)NC(=O)[C@H](CC(C)C)NC(=O)[C@H](CCCN=C(N)N)NC(=O)[C@H](CCCCN)NC(=O)[C@@H](N)Cc1ccccc1)C(=O)N[C@@H](Cc1c[nH]c2ccccc12)C(=O)N[C@@H](CC(N)=O)C(=O)N[C@@H](Cc1c[nH]c2ccccc12)C(=O)N[C@@H](CCCCN)C(N)=O [FKRLKKLAKKIWNWK]
- MIC [1]: 8 µM (≈ 15.9 µg/mL)
- MIC [2]: 4 µM (≈ 7.95 µg/mL)
- MIC [3]: 4 µM (≈ 7.95 µg/mL)
- MIC [4]: 16 µM (≈ 31.8 µg/mL)
- MIC [5]: 2.83 µM (≈ 5.62 µg/mL)
- MIC [6]: 2 µM (≈ 3.97 µg/mL)
- MIC [7]: 2 µM (≈ 3.97 µg/mL)
- MIC [8]: 8 µM (≈ 15.9 µg/mL)
- MIC [9]: 2 µM (≈ 3.97 µg/mL)
- MIC [10]: 16 µM (≈ 31.8 µg/mL)
- MIC [11]: 4 µM (≈ 7.95 µg/mL)
- MIC [12]: 16 µM (≈ 31.8 µg/mL)
- MIC [13]: 8 µM (≈ 15.9 µg/mL)
- MIC [14]: 4 µM (≈ 7.95 µg/mL)

Structure (SMILES): CC[C@H](C)[C@H](NC(=O)[C@@H](NC(=O)[C@@H]1CCCN1C(=O)[C@@H](NC(=O)[C@@H]1CCCN1C(=O)[C@H](CCCCN)NC(=O)[C@H](CCCCN)NC(=O)[C@H](CO)NC(=O)CN)C(C)C)[C@@H](C)CC)C(=O)N[C@@H](Cc1ccc(O)cc1)C(=O)N[C@H]1CSSC[C@@H](C(=O)O)NC(=O)[C@H](CCCCN)NC(=O)CNC(=O)[C@H]([C@@H](C)O)NC(=O)[C@H](CCCN=C(N)N)NC(=O)[C@H](CCCN=C(N)N)NC(=O)[C@H](CC(N)=O)NC1=O [GSKKPVPIIYCNRRTGKC]
- MIC (Pediococcus acidilactici): 28.3 µM (≈ 57.1 µg/mL)
- MIC (Micrococcus luteus): 7.07 µM (≈ 14.3 µg/mL)
- MIC (Fusarium culmorum): 14.1 µM (≈ 28.5 µg/mL)
- MIC (Bacillus megaterium): 7.07 µM (≈ 14.3 µg/mL)
- MIC (Trichoderma viride): 28.3 µM (≈ 57.1 µg/mL)
- MIC (Aerococcus viridans): 3.54 µM (≈ 7.14 µg/mL)
- MIC (Neurospora crassa): 14.1 µM (≈ 28.5 µg/mL)
- MIC (Ascochyta pisi): 28.3 µM (≈ 57.1 µg/mL)
- MIC (Alternaria brassicicola): 7.07 µM (≈ 14.3 µg/mL)
- MIC (Botrytis cinerea): 7.07 µM (≈ 14.3 µg/mL)
- MIC (Fusarium haematococcum): 7.07 µM (≈ 14.3 µg/mL)

Structure (SMILES): CC[C@H](C)[C@H](N)C(=O)N1CCC[C@H]1C(=O)N[C@@H](Cc1c[nH]c2ccccc12)C(=O)NCC(=O)N[C@@H](CCCCN)C(=O)N[C@H](C(=O)N[C@@H](CCCCN)C(=O)N[C@@H](CC(=O)O)C(=O)N[C@@H](Cc1ccccc1)C(=O)N[C@@H](CC(C)C)C(=O)N[C@H](C(=O)NCC(=O)NCC(=O)N[C@@H](CCSC)C(=O)N[C@@H](CCCCN)C(=O)N[C@@H](C)C(=O)N[C@H](C(N)=O)C(C)C)C(C)C)C(C)C [IPWGKVKDFLVGGMKAV]
- MIC [15]: ≥ 49 µM
- MIC [16]: 9 µM (≈ 16.6 µg/mL)

Structure (SMILES): CC[C@H](C)[C@H](NC(=O)[C@H](Cc1c[nH]c2ccccc12)NC(=O)[C@H](CO)NC(=O)[C@@H](NC(=O)[C@H](CC(C)C)NC(=O)[C@@H](N)[C@@H](C)O)[C@@H](C)CC)C(=O)N[C@@H](CCCCN)C(=O)N[C@@H](CC(N)=O)C(=O)N[C@@H](CCCCN)C(=O)N[C@@H](CCCN=C(N)N)C(=O)N[C@@H](CCCCN)C(=O)N[C@@H](CCC(N)=O)C(=O)N[C@@H](CCCN=C(N)N)C(=O)N1CCC[C@H]1C(=O)N[C@@H](CCCN=C(N)N)C(=O)N[C@H](C(=O)N[C@@H](CO)C(=O)N[C@@H](CCCN=C(N)N)C(=O)N[C@@H](CCCN=C(N)N)C(=O)N[C@@H](CCCN=C(N)N)C(=O)N[C@@H](CCCN=C(N)N)C(=O)N[C@@H](CCCN=C(N)N)C(=O)N[C@@H](CCCN=C(N)N)C(=O)NCC(=O)NCC(=O)N[C@@H](CCCN=C(N)N)C(=O)N[C@@H](CCCN=C(N)N)C(=O)N[C@@H](CCCN=C(N)N)C(=O)N[C@@H](CCCN=C(N)N)C(=O)O)C(C)C [TLISWIKNKRKQRPRVSRRRRRRGGRRRR]
- MIC (Staphylococcus aureus 31): ≥ 33 µM
- MIC [17]: 16.5 µM (≈ 62.5 µg/mL)
- MIC [18]: ≥ 132 µM
- MIC [19]: ≥ 66 µM
- MIC [20]: ≥ 66 µM
- MIC [21]: ≥ 33 µM
- MIC (Staphylococcus aureus 38): ≥ 33 µM

Structure (SMILES): CC(C)C[C@H](NC(=O)CNC(=O)[C@H](CS)NC(=O)CNC(=O)[C@H](CC(N)=O)NC(=O)CNC(=O)[C@H](Cc1c[nH]c2ccccc12)NC(=O)CNC(=O)[C@H](CCCN=C(N)N)NC(=O)[C@H](CC(=O)O)NC(=O)[C@@H](N)C(C)C)C(=O)N[C@@H](Cc1ccccc1)C(=O)NCC(=O)N[C@@H](CCCCN)C(=O)NCC(=O)NCC(=O)O [VDRGWGNGCGLFGKGG]
- MIC (Bacillus subtilis): ≥ 100 µM
- MIC [22]: ≥ 100 µM
- MIC (Candida albicans SC5314): ≥ 100 µM
- MIC [23]: > 100 µM
- MIC [24]: ≥ 100 µM
- MIC [25]: ≥ 100 µM
- MIC [26]: ≥ 100 µM

Structure (SMILES): CC(C)[C@H](N)C(=O)N[C@@H](CCCCN)C(=O)N[C@@H](CCCN=C(N)N)C(=O)N[C@@H](Cc1c[nH]c2ccccc12)C(=O)N[C@@H](CCCCN)C(=O)N[C@@H](CCCCN)C(=O)N[C@@H](Cc1c[nH]c2ccccc12)C(=O)N[C@@H](CCCN=C(N)N)C(=O)N[C@@H](Cc1c[nH]c2ccccc12)C(=O)N[C@@H](CCCCN)C(=O)N[C@@H](Cc1c[nH]c2ccccc12)C(=O)N[C@@H](CCCCN)C(=O)N[C@@H](CCCCN)C(=O)N[C@@H](Cc1c[nH]c2ccccc12)C(=O)N[C@H](C(N)=O)C(C)C [VKRWKKWRWKWKKWV]
- MIC [27]: 0.525 µM (≈ 1.17 µg/mL)
- MIC [28]: 2.1 µM (≈ 4.69 µg/mL)
- MIC (Bacillus subtilis): 0.525 µM (≈ 1.17 µg/mL)
- MIC [3]: 4.21 µM (≈ 9.38 µg/mL)
- MIC [29]: 0.628 µM (≈ 1.4 µg/mL)
- MIC [30]: 1.4 µM (≈ 3.13 µg/mL)
- MIC [31]: 1.25 µM (≈ 2.79 µg/mL)
- MIC [32]: 0.265 µM (≈ 0.59 µg/mL)
